According to patent US20260138957A1, “UREA-LINKED 2-AMINOIMIDAZOLE DIMER POTENTIATORS” (UNIVERSITY OF NOTRE DAME DU LAC, priority 2022, published 2026):
In brackets after ≈: the same amount, converted by molar mass.

Tests used:
[1] = tested on: A. baumannii strain 5075 (AB5075); assay: Clarithromycin potentiation against AB5075 (CLR MIC in presence of adjuvant); type: cell-based, Acinetobacter baumannii; conditions: for Clarithromycin (CLR) MIC / Fold Reduction of CLR MIC: AB5075; for CLR potentiation activity (in words): AB5075, 30 μM
[2] = tested on: A. baumannii strain 5075 (AB5075); assay: Standalone MIC against AB5075 (compound or antibiotic alone); type: cell-based, Acinetobacter baumannii; conditions: Acinetobacter baumannii; compound alone, AB5075
Text: Dimers were first analyzed for standalone toxicity against AB5075.

SMILES	Clarithromycin (CLR) MIC ([1]; adjuvant at 30 μM) [µg/mL]	Fold Reduction of CLR MIC ([1]; adjuvant at 30 μM) [fold]	MIC [2] [µM]	Clarithromycin (CLR) MIC ([1]; adjuvant at 5 μM) [µg/mL]	Fold Reduction of CLR MIC ([1]; adjuvant at 5 μM) [fold]	Clarithromycin (CLR) MIC ([1]; adjuvant at 7.5 μM) [µg/mL]	Fold Reduction of CLR MIC ([1]; adjuvant at 7.5 μM) [fold]	Clarithromycin (CLR) MIC ([1]; adjuvant at 10 μM) [µg/mL]	Fold Reduction of CLR MIC ([1]; adjuvant at 10 μM) [fold]	Clarithromycin (CLR) MIC ([1]; adjuvant at 20 μM) [µg/mL]	Fold Reduction of CLR MIC ([1]; adjuvant at 20 μM) [fold]	CLR potentiation activity (in words) [1]
Nc1nc(-c2ccc(F)c(NC(=O)Nc3ccc(-c4c[nH]c(N)n4)c(F)c3)c2)c[nH]1 [Compound 9i]	8	4	> 200	–	–	–	–	–	–	–	–	–
Nc1nc(-c2cc(NC(=O)Nc3ccc(F)c(-c4c[nH]c(N)n4)c3)ccc2F)c[nH]1 [Compound 9b]	0.125	256	> 200	2	16	1	32	0.5	64	0.25	128	–
Nc1nc(-c2ccc(NC(=O)Nc3ccc(-c4c[nH]c(N)n4)cc3F)c(F)c2)c[nH]1 [Compound 14a]	4	8	> 200	–	–	–	–	–	–	–	–	–
Nc1nc(-c2ccc(NC(=O)Nc3ccc(-c4c[nH]c(N)n4)c(F)c3)cc2)c[nH]1 [Compound 9m]	0.0625	512	> 200	–	–	2	16	1	32	0.5	64	–
Cc1cc(-c2c[nH]c(N)n2)ccc1NC(=O)Nc1ccc(-c2c[nH]c(N)n2)cc1C [Compound 14c]	32	1	> 200	–	–	–	–	–	–	–	–	abolished all activity
Nc1nc(-c2ccc(NC(=O)Nc3ccc(-c4c[nH]c(N)n4)c(C(F)(F)F)c3)cc2C(F)(F)F)c[nH]1 [Compound 9c]	2	16	> 200	–	–	–	–	–	–	–	–	abolished all activity
Nc1nc(-c2cccc(NC(=O)Nc3cc(F)cc(-c4c[nH]c(N)n4)c3)c2)c[nH]1 [Compound 9l]	0.0625	512	> 200	–	–	1	32	0.5	64	0.0625	512	–
Nc1nc(-c2cccc(NC(=O)Nc3cccc(-c4c[nH]c(N)n4)c3F)c2F)c[nH]1 [Compound 9f]	0.25	128	> 200	–	–	2	16	1	32	0.5	64	–
COc1cc(-c2c[nH]c(N)n2)ccc1NC(=O)Nc1ccc(-c2c[nH]c(N)n2)cc1OC [Compound 9d]	8	4	200 (≈ 86.9 µg/mL)	–	–	–	–	–	–	–	–	abolished all activity
